# Measurements taken from patent US8834938B2, “Use of arsenic for cancer therapy protection” (Board of Regents of the University of Texas System, priority 2011, dated 2014).
# Where a name gives a salt, the structure may show the parent alone. Read-outs that look alike come from different tables or passages of the source. Starred links: 1 amine or outer side, 2 acyl side, 3 side chain; linkers in the order of their positions; H or OH if unused. Positions of bridges follow the written chain, without caps; N, C: chain ends. Non-standard residues stand in square brackets, D forms with d. Residues, ends and D or L forms follow the SMILES beside them. Chains are numbered I, II in the order given. Actinocin(9to1) = Cc1c2oc3c(C)ccc(C(=O)[*:1])c3nc-2c(C(=O)[*:2])c(N)c1=O; NMeV = CN[C@H](C(=O)O)C(C)C; Sar = CNCC(=O)O
# Experiments:
# [1] = test system: multiple myeloma; details: oral administration; cited from earlier work
# [2] = test system: chronic myelogenous leukemia; details: previously untreated chronic myelogenous leukemia; cited from earlier work
# [3] = cited from earlier work
# [4] = in vivo, cited from earlier work
# [5] = oral, 30 mg/m^2 to 100 mg/m^2; cited from earlier work
# [6] = in vivo; cited from earlier work
# [7] = 10 mg daily over 2 to 3 hours IV; cited from earlier work
# [8] = test system: human adult foreskin keratinocytes; details: cited from earlier work
# [9] = test system: Lung; details: mouse, in vivo
# [10] = test system: Human colon carcinoma cells, SW-480; format: in vivo, mice
# [11] = set-up: species or system mice; details: mouse, in vivo
# [12] = test system: Human breast carcinoma cells, MDA-MB-231; format: in vivo, mice
# [13] = test system: small intestine and bone marrow cells; details: mouse, in vivo
# [14] = test system: p53; test: C57BL/6 WT vs p53 R172P knock-in mice, protection by arsenic; format: in vivo; details: in contrast with wild type littermates
# [15] = mouse, in vivo
# [16] = test system: p53; format: cell-based
# [17] = test system: p53; test: p53 response to irradiation in peripheral blood lymphocytes after arsenic removal; format: in vivo, Mice
# Protocol: We next used mice to examine arsenic-mediated modulation of p53 activity in vivo. To this end, we used peripheral blood lymphocytes to monitor the p53 response to irradiation. Mice were fed with water containing arsenic for 3 days. Whole blood was collected from the animals 1, 3, 5, 7, 9, or 11 days after arsenic removal. Lymphocytes were isolated by using the Ficoll method. The cells were cultured for 24 h, then irradiated at a dose of 2 Gy and harvested 3 hours post-treatment. Western analysis was performed. Consistent with the results from cell-based studies, p53 activation by radiation recovered, albeit with a slightly slower kinetics, after arsenic was removed. Radiation-induced p53 accumulation and p21 expression were suppressed at 0 and 1 day […], partially recovered at day 7 and completely back to the untreated level at day 9.
# [18] = set-up: species or system mice; details: mouse, in vivo; remark: listed apart in the source
# [19] = test system: Heart; details: mouse, in vivo
# [20] = test system: p53; format: cell-based, human
# [21] = mouse, in vivo; remark: listed apart in the source
# [22] = test system: small intestine and bone marrow cells; details: mouse, in vivo; remark: listed apart in the source
# [23] = mouse, in vivo; remark: listed apart in the source
# [24] = mouse, in vivo; remark: listed apart in the source
# [25] = test system: Human lung carcinoma cells A549; format: in vivo, mice
# [26] = oral; cited from earlier work
# [27] = in vivo; cited from earlier work; remark: listed apart in the source
# [28] = in vivo; cited from earlier work; remark: listed apart in the source
# [29] = cited from earlier work; remark: listed apart in the source
# [30] = test system: certain animal tumors; details: in vivo; cited from earlier work
# [31] = mice; cited from earlier work
# [32] = patients with creatinine clearance >35 mL per minute; cited from earlier work
# [33] = in vivo; cited from earlier work; remark: listed apart in the source
# [34] = after arsenic removal, 3 days arsenic water
# [35] = 5FU 30 mg/kg i.v. daily for one week
molecule,measurement,setting,value
"N[C@@H](Cc1ccc(N(CCCl)CCCl)cc1)C(=O)O [Melphalan, 4-(bis(2-chloroethyl)amino)-L-phenylalanine]",Patients showing a favorable response,[1],one third to one half
"CS(=O)(=O)OCCCCOS(C)(=O)=O [busulfan, 1,4-butanediol dimethanesulfonate]",Adults obtaining hematologic remission,[2],Approximately 90%
CO[C@@]12[C@H](COC(N)=O)C3=C(C(=O)C(C)=C(N)C3=O)N1C[C@@H]1N[C@@H]12 [Mitomycin],Time required to reduce the serum concentration by 50%,[3]; 30 mg bolus injection,17 min
same,Dose excreted unchanged in the urine,[3]; in vivo,Approximately 10%
"COc1cccc2c1C(=O)c1c(O)c3c(c(O)c1C2=O)C[C@@](O)(C(C)=O)C[C@@H]3O[C@H]1C[C@H](N)[C@H](O)[C@H](C)O1 [Daunorubicin, 5,12-Naphthacenedione, (8S-cis)-8-acetyl-10-(3-amino-2,3,6-trideoxy-a-L-lyxo-hexanopyranosyl)oxy)-7,8,9,10-tetrahydro-6,8,11-trihydroxy-10-methoxy hydrochloride]",Oral absorption,[4]; po,poor
same,Half-life of elimination,[4],about 19 hr
"O=NN(CCCl)C(=O)NC1CCCCC1 [Lomustine, 1-(2-chloro-ethyl)-3-cyclohexyl-1 nitrosourea]",Radioactivity excreted as degradation products within 24 hours,[5],about half
"COc1cccc2c1C(=O)c1c(O)c3c(c(O)c1C2=O)C[C@@](O)(C(=O)CO)C[C@@H]3O[C@H]1C[C@H](N)[C@H](O)[C@H](C)O1 [Doxorubicin, 5,12-Naphthacenedione, (8s-cis)-10-((3-amino-2,3,6-trideoxy-a-L-lyxo-hexopyranosyl)oxy)-7,8,9,10-tetrahydro-6,8,11-trihydroxy-8-(hydroxyacetyl)-1-methoxy-hydrochloride]",Absorption,[6],absorbed poorly
same,Elimination half-life,[6],about 30 hr
same,Excreted into the urine,[6],a few percent
arsenic (III) oxide [Arsenic Trioxide],Plasma arsenic mean peak level,[7],6.85 µmol/L
same,t1/2α,[7],0.89 ± 0.29 h
same,t1/2β,[7],12.13 ± 3.31 h
sodium arsenite,Concentration resulting in induced proliferation with enhanced NF-κB and AP-1 activity,[8],≤ 5 µM
same,Concentration with statistically significant decrease of cell viability,[8],≥ 10 µM
same,"Grade of Damage, Lung",[9],Zero
same,Effect of arsenic pretreatment on 5FU-induced tumor suppression,"[10]; mouse, in vivo",little effect
same,Effect on growth of the implanted tumors,"[10]; mouse, in vivo",did not have any detectable effect
same,Duration of pretreatment adequate for optimal protection,[11],3 days
same,Protection with 1 and 2 days pretreatment,[11],less than 3-day pretreatment
same,Protection with pretreatments longer than 3-day,[11],no further increase of benefits
same,Effect of arsenic pretreatment on 5FU-induced tumor suppression,"[12]; mouse, in vivo",little effect
same,Damage to small intestine and bone marrow cells with arsenic pretreatment,[13],significantly inhibited
same,Protection against toxicity in p53 mutant mice,[14],little protection
same,Dose showing very clear toxicity by itself,[15],> 3500 μg/kg body weight
same,Effect on Hdm2 and p53 distribution,[16],upregulation of Hdm2 and accumulation of p53 in the cytoplasm
same,p53 response to genotoxic stress,[16],impaired p53 activation and apoptosis
same,Radiation-induced p53 accumulation and p21 expression,"[17]; 0 and 1 day, lymphocytes irradiated 2 Gy ex vivo",suppressed
same,Day of complete return to untreated level of p53 accumulation and p21 expression,[17]; [34],9 days
same,Day of partial recovery of radiation-induced p53 accumulation and p21 expression,[17]; [34],7 days
same,p53-dependent tissue damages induced by 5FU treatment,[18],significantly blunted
same,"Grade of Damage, Heart",[19],Zero
same,Time after arsenic removal until p53 activation almost completely recovered,[20],7 days
same,Time in arsenic-free media until radiation-induced p53 activation detectable,[20],5 days
same,5FU-induced body weight loss with arsenic pretreatment,[21],almost completely prevented
same,Body weight change,[21],little loss of body weight
same,5FU damage to the small intestine with arsenic pretreatment,[22],significantly ameliorated
same,5FU-induced decrease of bone marrow cellularity with arsenic pretreatment,[22],considerably alleviated
same,Body weight change,[23],little loss of body weight
same,Therapy-induced body weight loss with arsenic pretreatment,[23],effectively prevented
same,5FU-induced body weight loss with arsenic pretreatment,[24],almost completely prevented
same,Effect of arsenic pretreatment on 5FU-induced tumor suppression,"[25]; mouse, in vivo",little effect
same,Effect of arsenic pretreatment on irradiation-induced tumor suppression,"[25]; mouse, in vivo",little effect
same,Effect on growth of the implant tumors,"[25]; mouse, in vivo",did not have any detectable effect
"O=C(O)CCCc1ccc(N(CCCl)CCCl)cc1 [Chlorambucil, 4-(bis(2-chlorethyl)amino)benzenebutanoic acid]",Absorption from the gastrointestinal tract,[26],rapidly and completely absorbed
N.N.[Cl][Pt][Cl] [Cisplatin],Oral absorption,[27],not absorbed orally
"O.O=P1(N(CCCl)CCCl)NCCCO1 (centres unmarked) [Cyclophosphamide, 2H-1,3,2-Oxazaphosphorin-2-amine, N,N-bis(2-chloroethyl)tetrahydro-, 2-oxide, monohydrate]",Stability in the gastrointestinal tract,[28],stable in the gastrointestinal tract
CC[C@]1(O)C[C@H]2CN(CCc3c([nH]c4ccccc34)[C@@](C(=O)OC)(c3cc4c(cc3OC)N(C=O)[C@H]3[C@@](O)(C(=O)OC)[C@H](OC(C)=O)[C@]5(CC)C=CCN6CC[C@]43[C@@H]65)C2)C1 [Vincristine],Absorption after oral administration,[29]; in vivo,Unpredictable absorption
same,Plasma protein binding,[29]; in vivo,bind to plasma proteins
same,Terminal half-life,[29]; plasma,about 24 hours
N[C@H](Cc1ccc(N(CCCl)CCCl)cc1)C(=O)O [medphalan],Activity against certain animal tumors relative to L-isomer,[30],less active
Bleomycin,Concentration in hematopoietic tissue,[31],low concentrations
same,"Concentration in skin, lungs, kidneys, peritoneum, and lymphatics",[31],high concentrations
same,Serum or plasma terminal elimination half-life,[32],approximately 115 minutes
COc1cccc2c1C(=O)c1c(O)c3c(c(O)c1C2=O)C[C@@](O)([C@H](C)O)C[C@@H]3O[C@H]1C[C@H](N)[C@H](O)[C@H](C)O1 [daunorubicinol],Half-life of active metabolite,[4],about 27 hr
"O=c1[nH]cc(F)c(=O)[nH]1 [5FU, Fluorouracil]",Tumor volume response,[10]; [35],marked tumor regression
same,Tumor volume response,[12]; [35],marked tumor regression
same,Damage to small intestine and bone marrow cells,[13],severe damages
same,Bone marrow cellularity,[22],Bone marrow cell exhaustion
same,Damage to the small intestine,[22],severe damages
same,Tumor volume response,[25]; 5FU 30 mg/kg intravenous daily for one week,marked tumor regression
"Cc1c2oc3c(C)ccc(C(=O)N[C@@H]4C(=O)N[C@H](C(C)C)C(=O)N5CCC[C@H]5C(=O)N(C)CC(=O)N(C)[C@@H](C(C)C)C(=O)O[C@@H]4C)c3nc-2c(C(=O)N[C@@H]2C(=O)N[C@H](C(C)C)C(=O)N3CCC[C@H]3C(=O)N(C)CC(=O)N(C)[C@@H](C(C)C)C(=O)O[C@@H]2C)c(N)c1=O [Actinomycin D] (I: T[dV]P[Sar][NMeV] / II: T[dV]P[Sar][NMeV]; ester I:1-I:C, II:1-II:C; linker I:N-II:N via Actinocin(9to1))",Blood-brain barrier passage,[33],does not pass the blood-brain barrier
same,Dose excreted intact into the bile,[33],Half of the dose
same,Dose excreted intact into the urine,[33],10%
same,Half-life,[33],about 36 hr
CC[C@]1(O)C[C@@H]2CN(CCc3c([nH]c4ccccc34)[C@@](C(=O)OC)(c3cc4c(cc3OC)N(C)[C@H]3[C@@](O)(C(=O)OC)[C@H](OC(C)=O)[C@]5(CC)C=CCN6CC[C@]43[C@@H]65)C2)C1 [Vinblastine],Absorption after oral administration,[29]; in vivo,Unpredictable absorption
same,Dose recovered in the feces after biliary excretion,[29]; in vivo,about 10%
same,Plasma protein binding,[29]; in vivo,bind to plasma proteins
same,Plasma half-life after distribution (first),[29]; intravenous injection,approximately 1 hours
same,Plasma half-life after distribution (second),[29]; intravenous injection,~72000 s
same,Peak concentration in plasma,[29]; usual clinical doses,approximately 0.4 mM
